As usually defined, the IC50 is the concentration that gives 50% inhibition.

This note sets out measurements from ChEMBL document CHEMBL4390705, “A new lateral root growth inhibitor from the sponge-derived fungus Aspergillus sp. LS45” (Bioorg Med Chem Lett, 2019).

The source made the active and inactive calls. No cut-off for these calls is given here.

The test system of assay [1] is Arabidopsis thaliana. The assay is described as follows: Inhibition of seed germination in Arabidopsis thaliana Columbia-0 assessed as reduction in lateral root growth up to 100 uM incubated for 10 days under 16 hrs-light/8 hrs-dark condition by microscopic analysis. It counts as functional, organism-based.
Assay [2] concerns Arabidopsis thaliana. The assay can be described thus: Inhibition of seed germination in Arabidopsis thaliana Columbia-0 assessed as reduction in primary root growth up to 100 uM incubated for 10 days under 16 hrs-light/8 hrs-dark condition by microscopic analysis. It is filed as functional, organism-based.
The next assay deals with CCRF-CEM. The assay can be described thus: Cytotoxicity against human CCRF-CEM cells by MTT assay. It is filed as functional, cell-based. A general note: Formazan colour is commonly taken as a measure of viable cells.
Another assay concerns K562. The assay can be described thus: Cytotoxicity against human K562 cells by MTT assay. It is filed as functional, cell-based.
In a further assay the test system is BGC-823. The assay is described as follows: Cytotoxicity against human BGC823 cells by MTT assay. It counts as functional, cell-based.
The subject of the next assay is AGS. The assay is described as follows: Cytotoxicity against human AGS cells by MTT assay. It is filed as functional, cell-based.
A further assay has as its system HCT-116. The assay is described as follows: Cytotoxicity against human HCT116 cells by MTT assay. It is filed as functional, cell-based.
The subject of another assay is MDA-MB-231. The assay can be described thus: Cytotoxicity against human MDA-MB-231 cells by MTT assay. It counts as functional, cell-based.
A further assay has as its target T1, Acetylcholinesterase (Mus musculus, UniProt P21836).
T1 sequence (P21836 whole entry): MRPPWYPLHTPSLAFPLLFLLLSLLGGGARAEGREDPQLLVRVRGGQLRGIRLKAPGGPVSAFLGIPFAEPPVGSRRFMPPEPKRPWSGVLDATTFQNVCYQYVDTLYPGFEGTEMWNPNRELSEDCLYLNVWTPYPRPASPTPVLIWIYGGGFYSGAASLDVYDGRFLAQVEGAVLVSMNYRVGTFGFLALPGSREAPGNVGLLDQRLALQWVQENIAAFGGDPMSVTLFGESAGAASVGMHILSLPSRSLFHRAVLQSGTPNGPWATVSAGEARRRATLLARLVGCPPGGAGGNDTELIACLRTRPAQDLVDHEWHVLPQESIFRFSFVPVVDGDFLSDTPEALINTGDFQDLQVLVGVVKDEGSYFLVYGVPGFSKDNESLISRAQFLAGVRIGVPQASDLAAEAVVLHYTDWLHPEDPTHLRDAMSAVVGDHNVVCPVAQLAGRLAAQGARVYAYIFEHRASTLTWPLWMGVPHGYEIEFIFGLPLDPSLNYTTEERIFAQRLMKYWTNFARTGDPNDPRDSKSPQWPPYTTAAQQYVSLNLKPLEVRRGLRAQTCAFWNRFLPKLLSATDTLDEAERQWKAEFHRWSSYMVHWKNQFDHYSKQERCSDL
The assay can be described thus: Inhibition of mouse brain homogenate AChE using acetylthiocholine iodide as substrate measured after 15 mins in presence of BChE inhibitor methopropazine hydrochloride by DTNB reagent based colorimetric method. It is filed as tissue-based.

Assay [3] relates to Arabidopsis thaliana. The assay is described as follows: Inhibition of seed germination in Arabidopsis thaliana Columbia-0 assessed as reduction in lateral root growth at 50 to 100 uM incubated for 10 days under 16 hrs-light/8 hrs-dark condition by microscopic analysis. It is filed as functional, organism-based.
In assay [4] the test system is Arabidopsis thaliana. The assay is described as follows: Inhibition of seed germination in Arabidopsis thaliana Columbia-0 assessed as reduction in primary root growth at 50 uM incubated for 10 days under 16 hrs-light/8 hrs-dark condition by microscopic analysis. It is filed as functional, organism-based.
Assay [5] relates to Arabidopsis thaliana. The assay can be described thus: Inhibition of seed germination in Arabidopsis thaliana Columbia-0 assessed as reduction in primary root growth at 100 uM incubated for 10 days under 16 hrs-light/8 hrs-dark condition by microscopic analysis. It is filed as functional, organism-based.

As for `CCCC1=C/C(=C\[C@H](O)[C@@H](C)O)OC1=O`, the inhibition entry in the assay on Arabidopsis thaliana [1] and in the assay with Arabidopsis thaliana [2] was “inactive” throughout. For the same molecule, the IC50 with CCRF-CEM, with K562, in the assay with BGC-823, in the assay on AGS, in the assay with HCT-116 and with MDA-MB-231 was greater than 50 µM in each case. For the same molecule, the IC50 at Acetylcholinesterase is greater than 200 µM.
For the molecule `CC(C)c1ccc(CO)c2ccc(C(=O)O)cc12`, the inhibition entry in the assay on Arabidopsis thaliana [3] and in the assay on Arabidopsis thaliana [4] was “Active” in each case. Moreover, in the assay with Arabidopsis thaliana [5], the inhibition result was “inactive”. In addition, the results for the concentration for half-maximal inhibition (IC50) in the assay with CCRF-CEM, with K562 and at Acetylcholinesterase were 13.8 µM, 12.9 µM and greater than 200 µM, respectively.
Take `CC[C@H](O)c1oc(=O)cc(OC)c1C`: the inhibition entry with Arabidopsis thaliana [1] and in the assay with Arabidopsis thaliana [2] was “inactive” each time. The IC50 with CCRF-CEM, in the assay on K562, with BGC-823, with AGS, in the assay with HCT-116 and in the assay on MDA-MB-231 was greater than 50 µM each time. The IC50 on Acetylcholinesterase was greater than 200 µM.
On to `Nc1cc(F)ccc1NC(=O)c1ccc(CNC(=O)/C=C/c2cccnc2)cc1` [TUCIDINOSTAT], for which the IC50 came to 0.63 µM in the assay with CCRF-CEM and 1.34 µM in the assay with K562.
`CCCC1=C/C(=C/[C@H](O)[C@@H](C)O)OC1=O`: the inhibition entry with Arabidopsis thaliana [3] and with Arabidopsis thaliana [4] was “Active” in each case. Further, the inhibition result with Arabidopsis thaliana [5] is “inactive”. Besides, the IC50 with CCRF-CEM, in the assay with K562, with BGC-823, with AGS, with HCT-116 and in the assay on MDA-MB-231 was greater than 50 µM each time. For the same molecule, the IC50 on Acetylcholinesterase was greater than 200 µM.
